Here are results for three compounds from ChEMBL document CHEMBL3414527, “Engineering potent and selective analogues of GpTx-1, a tarantula venom peptide antagonist of the Na(V)1.7 sodium channel” (J Med Chem, 2015).

Bridge positions count the residues as written; N and C are the ends. Peptide text beside a SMILES is read from it.

The experiment deals with Sodium channel protein type 9 subunit alpha (Homo sapiens, UniProt Q15858). The experiment can be described thus: Inhibition of human NaV1.7 at -140 mV holding potential by whole-cell patch clamp assay.
Chain of Sodium channel protein type 9 subunit alpha (Q15858 whole entry): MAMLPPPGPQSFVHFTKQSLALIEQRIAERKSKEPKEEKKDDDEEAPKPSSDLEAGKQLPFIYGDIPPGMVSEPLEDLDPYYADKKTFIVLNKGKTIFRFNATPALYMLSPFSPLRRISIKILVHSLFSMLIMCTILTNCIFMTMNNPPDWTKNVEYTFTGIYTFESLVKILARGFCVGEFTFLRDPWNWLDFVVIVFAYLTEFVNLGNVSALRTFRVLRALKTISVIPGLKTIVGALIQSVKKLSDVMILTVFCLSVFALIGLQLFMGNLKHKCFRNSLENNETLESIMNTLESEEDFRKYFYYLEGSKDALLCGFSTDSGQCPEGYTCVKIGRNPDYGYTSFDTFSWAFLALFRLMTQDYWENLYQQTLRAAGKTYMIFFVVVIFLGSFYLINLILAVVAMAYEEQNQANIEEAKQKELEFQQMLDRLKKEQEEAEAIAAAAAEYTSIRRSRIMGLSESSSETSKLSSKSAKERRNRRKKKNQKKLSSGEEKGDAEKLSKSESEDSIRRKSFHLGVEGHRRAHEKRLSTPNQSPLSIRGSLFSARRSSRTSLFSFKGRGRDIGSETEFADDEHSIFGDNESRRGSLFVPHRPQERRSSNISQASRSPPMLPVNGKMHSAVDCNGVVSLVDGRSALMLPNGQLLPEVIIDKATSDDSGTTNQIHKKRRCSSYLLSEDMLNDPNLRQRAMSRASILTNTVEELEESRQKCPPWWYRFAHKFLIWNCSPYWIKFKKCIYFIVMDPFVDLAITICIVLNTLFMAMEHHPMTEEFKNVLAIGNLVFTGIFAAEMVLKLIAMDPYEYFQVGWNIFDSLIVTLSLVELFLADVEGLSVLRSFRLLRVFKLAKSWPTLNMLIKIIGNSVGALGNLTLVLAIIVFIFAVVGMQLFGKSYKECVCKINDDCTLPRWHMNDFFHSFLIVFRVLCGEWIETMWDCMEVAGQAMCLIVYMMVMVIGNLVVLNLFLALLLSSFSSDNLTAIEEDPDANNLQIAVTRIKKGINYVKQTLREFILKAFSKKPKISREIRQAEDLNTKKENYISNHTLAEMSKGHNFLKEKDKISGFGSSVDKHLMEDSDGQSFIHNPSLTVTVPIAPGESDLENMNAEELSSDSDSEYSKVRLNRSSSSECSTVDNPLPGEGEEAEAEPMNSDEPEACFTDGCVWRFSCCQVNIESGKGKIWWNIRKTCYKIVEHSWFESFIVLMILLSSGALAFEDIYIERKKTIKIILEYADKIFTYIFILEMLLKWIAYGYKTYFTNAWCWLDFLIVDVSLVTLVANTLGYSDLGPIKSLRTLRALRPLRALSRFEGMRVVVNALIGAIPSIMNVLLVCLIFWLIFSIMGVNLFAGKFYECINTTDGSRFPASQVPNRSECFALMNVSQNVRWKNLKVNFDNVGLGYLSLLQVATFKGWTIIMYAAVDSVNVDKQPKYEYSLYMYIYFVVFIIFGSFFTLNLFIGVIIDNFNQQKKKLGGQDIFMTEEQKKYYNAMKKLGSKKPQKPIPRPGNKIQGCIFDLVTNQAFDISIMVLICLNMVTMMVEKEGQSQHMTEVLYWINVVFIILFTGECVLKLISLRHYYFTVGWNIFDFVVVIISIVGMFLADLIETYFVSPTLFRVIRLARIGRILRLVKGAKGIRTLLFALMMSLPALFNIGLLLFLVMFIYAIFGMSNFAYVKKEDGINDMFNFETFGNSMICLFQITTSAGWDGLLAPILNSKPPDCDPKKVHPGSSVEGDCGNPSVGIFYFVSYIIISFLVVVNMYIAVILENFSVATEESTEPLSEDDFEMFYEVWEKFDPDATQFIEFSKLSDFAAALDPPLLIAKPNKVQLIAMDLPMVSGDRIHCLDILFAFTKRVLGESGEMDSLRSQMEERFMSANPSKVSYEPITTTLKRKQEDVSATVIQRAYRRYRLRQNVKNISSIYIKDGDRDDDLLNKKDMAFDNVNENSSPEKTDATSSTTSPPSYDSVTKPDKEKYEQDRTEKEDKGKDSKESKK
For the compound `CC[C@H](C)[C@@H]1NC(=O)[C@@H]2CSSC[C@@H]3NC(=O)[C@H](C(C)C)NC(=O)[C@H](CC(C)C)NC(=O)[C@H](CC(N)=O)NC(=O)[C@@H]4CCCN4C(=O)[C@H](CCCNC(=N)N)NC(=O)[C@H](CSSC[C@H](NC(=O)[C@@H](N)CC(=O)O)C(=O)N[C@@H](CC(C)C)C(=O)NCC(=O)N[C@@H](Cc4ccc(-c5ccccc5)cc4)C(=O)N[C@@H](CCSC)C(=O)N[C@@H](CCCNC(=N)N)C(=O)N[C@@H](CCCCN)C(=O)N2)NC(=O)[C@H](CSSC[C@@H](C(=O)N[C@@H](CCCCN)C(=O)N[C@@H](Cc2ccc(O)cc2)C(=O)N[C@H](C(=O)N[C@@H](Cc2ccccc2)C(N)=O)C(C)C)NC(=O)[C@H](Cc2c[nH]c4ccccc24)NC(=O)[C@H](CCCCN)NC(=O)[C@H](Cc2cnc[nH]2)NC(=O)[C@H]([C@@H](C)O)NC(=O)[C@H](CCCNC(=N)N)NC(=O)[C@H](CO)NC3=O)NC(=O)[C@H](CCCCN)NC(=O)[C@H](CC(=O)O)NC(=O)[C@H](CC(N)=O)NC(=O)[C@H](CC(=O)O)NC(=O)[C@@H]2CCCN2C1=O`, the IC50 was 86 nM. With `CC[C@H](C)[C@@H]1NC(=O)[C@@H]2CSSC[C@@H]3NC(=O)[C@H](C(C)C)NC(=O)[C@H](CC(C)C)NC(=O)[C@H](CC(N)=O)NC(=O)[C@@H]4CCCN4C(=O)[C@H](CCCNC(=N)N)NC(=O)[C@H](CSSC[C@H](NC(=O)[C@@H](N)CC(=O)O)C(=O)N[C@@H](CC(C)C)C(=O)NCC(=O)N[C@@H](Cc4ccccc4)C(=O)N[C@@H](CCSC)C(=O)N[C@@H](CCCNC(=N)N)C(=O)N[C@@H](CCCCN)C(=O)N2)NC(=O)[C@H](CSSC[C@@H](C(=O)N[C@@H](CCCCN)C(=O)N[C@@H](Cc2ccc(O)cc2)C(=O)N[C@H](C(=O)N[C@@H](Cc2ccccc2)C(N)=O)C(C)C)NC(=O)[C@H](Cc2c[nH]c4ccccc24)NC(=O)[C@H](CCCCN)NC(=O)[C@H](Cc2cnc[nH]2)NC(=O)[C@H](Cc2cnc[nH]2)NC(=O)[C@H](CCCNC(=N)N)NC(=O)[C@H](CO)NC3=O)NC(=O)[C@H](CCCCN)NC(=O)[C@H](CC(=O)O)NC(=O)[C@H](CC(N)=O)NC(=O)[C@H](CC(=O)O)NC(=O)[C@@H]2CCCN2C1=O` (H-DCLGFMRKCIPDNDKCCRPNLVCSRHHKWCKYVF-NH2; disulfide 2-17, 9-23, 16-30) the figure was 4 nM; with `CC[C@H](C)[C@@H]1NC(=O)[C@@H]2CSSC[C@@H]3NC(=O)[C@H](C(C)C)NC(=O)[C@H](CC(C)C)NC(=O)[C@H](CC(N)=O)NC(=O)[C@@H]4CCCN4C(=O)[C@H](CCCNC(=N)N)NC(=O)[C@H](CSSC[C@H](NC(=O)[C@@H](N)CC(=O)O)C(=O)N[C@@H](CC(C)C)C(=O)NCC(=O)N[C@@H](Cc4ccccc4)C(=O)N[C@@H](CCSC)C(=O)N[C@@H](CCCNC(=N)N)C(=O)N[C@@H](CCCCN)C(=O)N2)NC(=O)[C@H](CSSC[C@@H](C(=O)N[C@@H](CCCCN)C(=O)N[C@@H](Cc2ccc(O)cc2)C(=O)N[C@H](C(=O)N[C@@H](Cc2ccccc2)C(N)=O)C(C)C)NC(=O)[C@H](Cc2c[nH]c4ccccc24)NC(=O)[C@H](CCCNC(=N)N)NC(=O)[C@H](Cc2cnc[nH]2)NC(=O)[C@H]([C@@H](C)O)NC(=O)[C@H](CCCNC(=N)N)NC(=O)[C@H](CO)NC3=O)NC(=O)[C@H](CCCCN)NC(=O)[C@H](CC(=O)O)NC(=O)[C@H](CC(N)=O)NC(=O)[C@H](CC(=O)O)NC(=O)[C@@H]2CCCN2C1=O`, 8 nM.
